Measurements as given in patent publication US20240287033A1, “DEGRADERS OF TISSUE TRANSGLUTAMINASE 2 (TG2)” (Northwestern University, priority 2023, published 2024).
“Also recorded” adds a separate entry of the source. Read-outs that look alike come from different tables or passages of the source. One block for each compound: values may come before it.

Legend:
full-length TG2 [1] = molecular target: T1, full-length TG2 (Homo sapiens, UniProt P21980); details: literature value (ref. 41); read-out: KD of MT4 to TG2, previously reported result; cited from earlier work
T1 sequence (P21980 1-687): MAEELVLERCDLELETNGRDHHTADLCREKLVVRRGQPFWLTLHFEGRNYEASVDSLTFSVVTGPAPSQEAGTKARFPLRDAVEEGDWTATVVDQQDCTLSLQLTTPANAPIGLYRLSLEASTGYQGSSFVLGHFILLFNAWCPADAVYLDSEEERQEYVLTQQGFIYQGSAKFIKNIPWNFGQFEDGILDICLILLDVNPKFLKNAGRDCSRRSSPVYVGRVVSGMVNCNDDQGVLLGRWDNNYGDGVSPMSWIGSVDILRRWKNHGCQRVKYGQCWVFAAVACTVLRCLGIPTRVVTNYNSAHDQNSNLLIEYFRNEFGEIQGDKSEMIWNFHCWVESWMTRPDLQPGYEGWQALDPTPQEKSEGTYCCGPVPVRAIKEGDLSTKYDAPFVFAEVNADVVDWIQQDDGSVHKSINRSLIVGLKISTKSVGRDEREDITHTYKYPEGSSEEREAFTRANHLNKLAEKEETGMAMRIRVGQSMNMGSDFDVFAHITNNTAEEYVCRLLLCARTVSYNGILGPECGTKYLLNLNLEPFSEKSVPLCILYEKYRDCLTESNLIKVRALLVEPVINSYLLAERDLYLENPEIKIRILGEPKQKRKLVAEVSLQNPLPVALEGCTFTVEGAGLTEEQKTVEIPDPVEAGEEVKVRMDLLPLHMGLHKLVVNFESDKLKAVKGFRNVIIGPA

full-length TG2 [2] = molecular target: T1, full-length TG2; experiment: Isothermal titration calorimetry (ITC) binding to TG2; details: for Kd: titration into TG2 at 30° C., PBS with 1% DMSO, read-out: equilibrium dissociation constant KD (ITC)
Procedure: Sample Preparation. Protein dilutions in PBS with 1% DMSO were prepared from stock solutions of […] in PBS. The protein dilutions were initially equilibrated on ice for 5 min, then for 20 min at 30° C. The solutions were filtered using a […] Millipore centrifugal device just prior to insertion in the ITC cell. The solubility of the protein solutions was confirmed independently by DLS (data not shown), and the concentration of each solution (after filtration) was measured with a NanoDrop 2000 Instrument.
All compound dilutions were made in PBS, and the final DMSO concentration in each solution was carefully adjusted to 1%.
ITC Experiments. All ITC experiments were performed on an Affinity Low Volume instrument (Waters/TA Instruments) equipped with a fixed 198 μL gold cell. In each experiment, 320 μL of protein solution was loaded into the ITC cell, and 200 μL of the corresponding compound was in the syringe. The data were acquired using ITCRun data acquisition software. The incremental ITC experiments consisted of multiple 2 μL injections at 50-350-second intervals with a stirring speed of 100 revolutions per minute (rpm). The Auto Equilibrate function allowed for the equilibration of the baseline to a peak-to-peak standard deviation of less than 12 nW. For each compound, separate control experiments were performed to evaluate the heat of dilution. The control experiments were set with identical parameters but performed with reaction buffer instead of protein in the ITC cell and consisted of fewer (6-10) injections.
Data Analysis. ITC data were analyzed with Nano Analyze Software (Waters/TA Instruments) using the “independent sites” model after correction for heats of dilution.

Solubility observations = assay type: physicochemical
TG2 [3] = molecular target: T2, TG2 (Homo sapiens, UniProt P21980); experiment: Western blot analysis of TG2 degradation in OVCAR5 cells; assay type: cell-based
T2 construct: tested in multiple ovarian cancer cell lines that express TG2 for their ability to degrade the protein; endogenous in cells; host or cells: OVCAR5 and SKOV3 ovarian cancer cells
T2 sequence (P21980 1-687): T1 sequence (P21980 1-687)
Procedure: (§1) SKOV3 cells were purchased from ATCC. OVCAR5 cells were obtained from Dr. Marcus Peter at Northwestern University. Cells were maintained at 37° C. in an environment of 5% CO2 and 100% humidity. The media used for culturing the cell lines are included in Table 1. Cells lines used in all experiments were at low-passages and were confirmed to be pathogen and mycoplasma-free by Charles River Animal Diagnostic Services. Cell lines were authenticated by IDEXX BioAnalytics with short tandem repeat (STR) profiling. MG132 was obtained from SelleckChem. Anti-TG2 antibody (cat #: MAB3839-I-100UG) was purchased from Millipore Sigma, GAPDH antibody (cat #: H86504M) was purchased from Meridian Bioscience.
(§2) Briefly, SKOV3 and OVCAR5 cells were seeded on 6 cm dishes and treated with different concentrations of compounds at different time points. Proteins were extracted using RIPA buffer and quantified using the Bradford assay. After gel electrophoresis and transfer, PDVF membranes were blocked with TBS-Tween 5% BSA for one hour and incubated with primary antibodies 20 (1:1000 dilution, overnight at 4° C.). After incubation with the secondary antibody (anti rabbit/mouse-horseradish peroxidase 1:1000 dilution) for 1 h at room temperature, signal was developed using SuperSignal West Pico PLUS Chemiluminescent Substrate (Thermo Fisher Scientific cat #: 34580) and captured with an ImageQuant LAS 4000 machine. To detect additional proteins, membranes were treated with Restore Western Blot Stripping Buffer (Thermo Fisher Scientific cat #: 21059), blocked, and then incubated with primary antibody.

OVCAR5 cells [4] = experiment: Cell viability assay (CCK-8), OVCAR5; assay type: cell-based; details: 0.1-30 μM, 5 days
Procedure: (§3) The numbers of viable cells were quantified by using the CCK-8 assay (ApexBio) following the manufacturer's directions. Absorbance was measured by a spectrophotometer at 495 nm and used estimate the viability of the cells.

SKOV3 cells [5] = experiment: Solid phase adhesion assay on fibronectin, SKOV3; assay type: cell-based
Procedure: (§4) Briefly, wells were coated with 10 μg/ml fibronectin diluted in PBS for one hour. 30,000 cells pretreated with compounds for 6 hours were seeded and allowed to attach for 30 minutes. After washing with PBS to remove unattached cells, cells adhering to coated wells were quantified by using the CCK-8 assay (ApexBio), following the manufacturer's protocol. Relative absorbance measured at 496 nm was used to estimate the relative number of the cell attached to fibronectin coated wells.

SKOV3 cells [6] = experiment: Wound-healing (scratch) assay, SKOV3; assay type: cell-based
Procedure: (§5) For the scratch assay, confluent 6-well plates were scratched with a pipette tip, washed and treated with compounds or vehicle. The plate was photographed at set time points and the area of wound closure was quantified with ImageJ. Cell migration was assessed by using Transwell inserts (8 μm pore size, Merck-Millipore, Watford, UK). Briefly, 15,000 cells were seeded in the upper chambers of trans-wells in serum-free media containing compounds or control, while media containing 10% serum was added to the lower chamber. After 18 hours, cells invaded through the transwells were fixed with warm 4% PFA for 20 min at room temperature and stained with crystal violet for 3 min. The membranes were removed, mounted on cover slides and cells were counted using a microscope at 40× magnification.

OVCAR5 cells [7] = experiment: Solid phase adhesion assay on fibronectin, OVCAR5; assay type: cell-based
Procedure: as §4

OVCAR5 cells [8] = experiment: Transwell migration assay, OVCAR5; assay type: cell-based
Procedure: as §5

TG2 [9] = molecular target: T2, TG2; experiment: Western blot analysis of TG2 degradation in SKOV3 cells; assay type: cell-based
Procedure: as §1, §2

SKOV3 cells [10] = experiment: Transwell migration assay, SKOV3; assay type: cell-based
Procedure: as §5

SKOV3 cells [11] = experiment: Cell viability assay (CCK-8), SKOV3; assay type: cell-based; details: 0.1-30 μM, 5 days
Procedure: as §3

OVCAR5 cells [12] = experiment: Wound-healing (scratch) assay, OVCAR5; assay type: cell-based
Procedure: as §5

[13] = 10 μM compound 6 hrs, 10 μM VHL ligand
[14] = dosed every 6-8 hours over 24 hours, 1 or 10 μM

Kd (full-length TG2 [2]): 7.8 µM
SMILES: Cc1cc(N(C)C)nc(Nc2ccc(NC(=O)Cc3ccccc3)cc2)n1 [MT4, reference compound]
Kd (full-length TG2 [1]): 5.1 µM
solubility (in words) (Solubility observations): lower solubility than the PROTAC compounds

TG2 degradation with VHL ligand as competitive inhibitor (TG2 [3]; [13]): prevented degradation of TG2
TG2 levels after longer treatment (western blot) (TG2 [3]; 24 hours, single dosing): did not induce reduction in TG2 levels
TG2 levels after longer treatment (western blot) (TG2 [9]; 24 hours, single dosing): did not induce reduction in TG2 levels
time of maximal TG2 degradation (TG2 [9]; higher concentrations (10 and 30 μM)): 6 h
decrease in affinity relative to the parental compound MT4 (full-length TG2 [2]; ITC KD ratio versus MT4): > 12.8 fold
Kd (full-length TG2 [2]): > 100 µM
solubility (in words) (Solubility observations): poorer solubility than compound 11
SMILES: Cc1cc(N(C)CCOCCC(=O)N[C@H](C(=O)N2C[C@H](O)C[C@H]2C(=O)NCc2ccc(-c3scnc3C)cc2)C(C)(C)C)nc(Nc2ccc(NC(=O)Cc3ccccc3)cc2)n1 [Compound 7, (2S,4R)-1-((S)-3,3-dimethyl-2-(3-(2-(methyl(6-methyl-2-((4-(2-phenylacetamido)phenyl)amino)pyrimidin-4-yl)amino)ethoxy)propanamido)butanoyl)-4-hydroxy-N-(4-(4-methylthiazol-5-yl)benzyl)pyrrolidine-2-carboxamide]
TG2 degradation (western blot) (TG2 [3]; 6 hours, 0.1-10 μM): significantly reduced the level of TG2; also recorded: Degradation of TG2 was observed
TG2 levels at 24 hours after repeated dosing (TG2 [3]; [14]): persistent and dose-dependent decreased TG2 levels
cell death / viability (OVCAR5 cells [4]): No significant cell death; also recorded: no cell death was observed
adhesion of cells to fibronectin (SKOV3 cells [5]): significantly reduced the adhesion
cell migration, wound-healing assay (SKOV3 cells [6]): similarly inhibited the migration
adhesion of cells to fibronectin (OVCAR5 cells [7]): significantly reduced the adhesion
cell migration, transwell migration assay (OVCAR5 cells [8]): potently inhibited the migration
TG2 degradation with VHL ligand as competitive inhibitor (TG2 [9]; [13]): prevented degradation of TG2; also recorded: but not when combined with VHL ligand
TG2 degradation (western blot) (TG2 [9]; 6 hours, up to 10 μM): significantly reduced the level of TG2; also recorded: Degradation of TG2 was observed
TG2 levels at 24 hours after repeated dosing (TG2 [9]; [14]): persistent and dose-dependent decreased TG2 levels
cell migration, transwell migration assay (SKOV3 cells [10]): similarly inhibited the migration
cell death / viability (SKOV3 cells [11]): No significant cell death; also recorded: no cell death was observed
cell migration, wound-healing assay (OVCAR5 cells [12]): potently inhibited the migration
